Laboratory results reported in US20090291968A1, “SUBSTITUTED INDAZOLE DERIVATIVES, THEIR MANUFACTURE AND USE AS PHARMACEUTICAL AGENTS” (priority 2006, published 2009).
pIC50: −log10 of the molar value.

test system: HCT 116 cells; test: CellTiter-Glo assay in HCT 116 cells (cell viability); format: cell-based; settings: 120 h; HCT 116 human colon carcinoma cells, 5 days incubation, CellTiter-Glo luminescence
Method: The CellTiter-Glo™ Luminescent Cell Viability Assay (Promega) is a homogeneous method of determining the number of viable cells in culture based on quantitation of the ATP present, which signals the presence of metabolically active cells.
HCT 116 cells (human colon carcinoma, ATCC-No. CCl-247) were cultivated in RPMI 1640 medium with GlutaMAX™ I (Invitrogen, Cat-No. 61870-010), 2,5% Fetal Calf Serum (FCS, Sigma Cat-No. F4135 (FBS)); 100 Units/ml penicillin/100 μg/ml streptomycin (=Pen/Strep from Invitrogen Cat. No. 15140). For the assay the cells were seeded in 384 well plates, 1000 cells per well, in the same medium. The next day the test compounds were added in various concentrations ranging from 30 μM to 0.0015 μM (10 concentrations, 1:3 diluted). After 5 days the CellTiter-Glo™ assay was done according to the instructions of the manufacturer (CellTiter-Glo™ Luminescent Cell Viability Assay, from Promega). In brief: the cell-plate was equilibrated to room temperature for approximately 30 minutes and than the CellTiter-Glo™ reagent was added. The contents were carefully mixed for 15 minutes to induce cell lysis. After 45 minutes the luminescent signal was measured in Victor 2, (scanning multiwell spectrophotometer, Wallac).
1st. Day: • Medium: RPMI 1640 with GlutaMAX™ I (Invitrogen, Cat-Nr. 61870), 5% FCS (Sigma Cat.-No. F4135), Pen/Strep (Invitrogen, Cat No. 15140). • HCT116 (ATCC-No. CCl-247): 1000 cells in 60 μl per well of 384 well plate (Greiner 781098, μClear-plate white) • After seeding incubate plates 24 h at 37° C., 5% CO2 2nd. Day: Induction (Treatment with Compounds, 10 Concentrations):
In order to achieve a final concentration of 30 μM as highest concentration 3.5 μl of 10 mM compound stock solution were added directly to 163 μl media. Then step e) of the dilution procedure described below, was followed.
In order to achieve the second highest to the lowest concentrations, a serial dilution with dilution steps of 1:3 was followed according to the procedure (a-e) as described here below: • a) for the second highest concentration add 10 μl of 10 mM stock solution of compound to 20 μl dimethylsulfoxide (DMSO) • b) dilute 8×1:3 (always 10 μl to 20 μl DMSO) in this DMSO dilution row (results in 9 wells with concentrations from 3333.3 μM to 0.51 μM) • c) dilute each concentration 1:47.6 (3.5 μl compound dilution to 163 μl media) • e) add 10 μl of every concentration to 60 μl media in the cell plate resulting in final concentration of DMSO: 0.3% in every well and resulting in 10 final concentration of compounds ranging from 30 μM to 0.0015 μM. • Each compound is tested in triplicate. • Incubate 120 h (5 days) at 37° C., 5% CO2
• Add 30 μl CellTiter-Glo™ Reagent (prepared from CellTiter-Glo™ Buffer and CellTiter-Glo™ Substrate (lyophilized) purchased from Promega) per well, • shake 15 minutes at room temperature • incubate further 45 minutes at room temperature without shaking
• Victor 2 scanning multiwell spectrophotometer (Wallac), Luminescence mode (0.5 sec/read, 477 nm) • Determine IC50 using a non-linear curve fit (XLfit software (ID Business Solution Ltd., Guilford, Surrey, UK))

| SMILES | pIC50 |
| --- | --- |
| CCN1C(=O)C(C)(C)c2cc3nc(-c4n[nH]c5cc(-c6nc[nH]n6)ccc45)[nH]c3cc21 [Example 2, 5-Ethyl-7,7-dimethyl-2-[6-(1H-[1,2,4]triazol-3-yl)-1H-indazol-3-yl]-5,7-dihydro-3H-imidazo[4,5-f]indol-6-one] | 5.82 to 7.60 |
| CCN1C(=O)C(C)(C)c2cc3nc(-c4n[nH]c5cc(/C=C/c6ccccc6)ccc45)[nH]c3cc21 [Example 5, 5-Ethyl-7,7-dimethyl-2-[6-((E)-styryl)-1H-indazol-3-yl]-5,7-dihydro-3H-imidazo[4,5-f]indol-6-one] | 6.24 |
| CCN1C(=O)C(C)(C)c2cc3nc(-c4n[nH]c5cc(-c6cnn(C)c6)ccc45)[nH]c3cc21 [Example 7, 5-Ethyl-7,7-dimethyl-2-[6-(1-methyl-1H-pyrazol-4-yl)-1H-indazol-3-yl]-5,7-dihydro-3H-imidazo[4,5-f]indol-6-one] | 5.82 to 7.60 |
| CCN1C(=O)C(C)(C)c2cc3nc(-c4n[nH]c5cc(-c6cccnc6)ccc45)[nH]c3cc21 [Example 8, 5-Ethyl-7,7-dimethyl-2-(6-pyridin-3-yl-1H-indazol-3-yl)-5,7-dihydro-3H-imidazo[4,5-f]indol-6-one] | 6.79 |
| CCN1C(=O)C(C)(C)c2cc3nc(-c4n[nH]c5cc(/C=C/c6ccc(-c7ccccc7)cc6)ccc45)[nH]c3cc21 [Example 9, 2-[6-((E)-2-Biphenyl-4-yl-vinyl)-1H-indazol-3-yl]-5-ethyl-7,7-dimethyl-5,7-dihydro-3H-imidazo[4,5-f]indol-6-one] | 5.82 to 7.60 |
| CCN1C(=O)C(C)(C)c2cc3nc(-c4n[nH]c5cc(/C=C/c6ccc(OC)cc6)ccc45)[nH]c3cc21 [Example 10, 5-Ethyl-2-{6-[(E)-2-(4-methoxy-phenyl)-vinyl]-1H-indazol-3-yl}-7,7-dimethyl-5,7-dihydro-3H-imidazo[4,5-f]indol-6-one] | 5.82 to 7.60 |
| CCN1C(=O)C(C)(C)c2cc3nc(-c4n[nH]c5cc(-c6ccc(N(C)C)cc6)ccc45)[nH]c3cc21 [Example 12, 2-[6-(4-Dimethylamino-phenyl)-1H-indazol-3-yl]-5-ethyl-7,7-dimethyl-5,7-dihydro-3H-imidazo[4,5-f]indol-6-one] | 5.82 to 7.60 |

The remaining lines, values ahead:

| pIC50 | SMILES |
| --- | --- |
| 6.48 | CCN1C(=O)C(C)(C)c2cc3nc(-c4n[nH]c5cc(-c6ccc(C(C)=O)cc6)ccc45)[nH]c3cc21 [Example 13, 2-[6-(4-Acetyl-phenyl)-1H-indazol-3-yl]-5-ethyl-7,7-dimethyl-5,7-dihydro-3H-imidazo[4,5-f]indol-6-one] |
| 5.82 to 7.60 | CCN1C(=O)C(C)(C)c2cc3nc(-c4n[nH]c5cc(-c6ccc(OC)nc6)ccc45)[nH]c3cc21 [Example 14, 5-Ethyl-2-[6-(6-methoxy-pyridin-3-yl)-1H-indazol-3-yl]-7,7-dimethyl-5,7-dihydro-3H-imidazo[4,5-f]indol-6-one] |
| 5.82 to 7.60 | CCN1C(=O)C(C)(C)c2cc3nc(-c4n[nH]c5cc(-c6cccs6)ccc45)[nH]c3cc21 [Example 16, 5-Ethyl-7,7-dimethyl-2-(6-thiophen-2-yl-1H-indazol-3-yl)-5,7-dihydro-3H-imidazo[4,5-f]indol-6-one] |
| 5.82 to 7.60 | CCN1C(=O)C(C)(C)c2cc3nc(-c4n[nH]c5cc(/C=C/c6ccc(Cl)cc6)ccc45)[nH]c3cc21 [Example 18, 2-{6-[(E)-2-(4-Chloro-phenyl)-vinyl]-1H-indazol-3-yl}-5-ethyl-7,7-dimethyl-5,7-dihydro-3H-imidazo[4,5-f]indol-6-one] |
| 6.25 | CCN1C(=O)C(C)(C)c2cc3nc(-c4n[nH]c5cc(-c6ccc7c(c6)OCO7)ccc45)[nH]c3cc21 [Example 20, 2-(6-Benzo[1,3]dioxol-5-yl-1H-indazol-3-yl)-5-ethyl-7,7-dimethyl-5,7-dihydro-3H-imidazo[4,5-f]indol-6-one] |
| 5.82 to 7.60 | CCN1C(=O)C(C)(C)c2cc3nc(-c4n[nH]c5cc(-c6cccc(N(C)C)c6)ccc45)[nH]c3cc21 [Example 21, 2-[6-(3-Dimethylamino-phenyl)-1H-indazol-3-yl]-5-ethyl-7,7-dimethyl-5,7-dihydro-3H-imidazo[4,5-f]indol-6-one] |
